According to US20240315963A1, “COMPOSITIONS AND METHODS FOR EXTENDED DELIVERY OF API TO TREAT DISEASES OF THE EYE” (priority 2023, published 2024):

Test: API elution study from the gel, buffer replaced daily, HPLC
Format: physicochemical
Settings: 50 mg API in 4-Arm PEG-10K-SG/4-arm-PEG-10K-SAS/4-arm PEG-20K-NH2 gel; 37° C., 2 ml 7.4 buffer replaced daily
Experimental: A mold piece manufactured per example 5 is placed in a 2 ml buffered saline at 37° C. water bath. The entire 2 ml saline is removed daily from the sample and a new 2 ml saline is added. The process is repeated daily till the device is completely dissolved. The saline sample with drug is analyzed by HPLC, GC to establish the elution rate.
Example 22. Powder mixtures of 4-Arm PEG-10K-SG (12.5 mg) and 4-arm-PEG-10K-SAS (12.5±0.5 mg), 4-arm PEG-20K-NH 2 (25±0.5 mg) were placed in a 10 ml syringe. To this powder was added 50 mg corticosteroid TMC.

amount eluted each day: about 54 micro grams
Structure (SMILES): C[C@]12C=CC(=O)C=C1CC[C@H]1[C@@H]3C[C@@H](O)[C@](O)(C(=O)CO)[C@@]3(C)C[C@H](O)[C@@]12F [TMC]
